# Measured values published in US20070041915A1, “Use of a biguanide derivative for protecting skin against uvb radiation” (PHARMAMENS, priority 2003, published 2007).
# Tests used:
# Langerhans cells = assay: Protective activity against UVB-induced immunosuppressive photo effect (depletion of Langerhans cells) on survival-maintained human skin explants, anti-CD1a labelling; assay type: cell-based; details: histology and immunolabelling of Langerhans cells 24 hours after irradiation; preventive application
# Procedure: The purpose of this study is to evidence the protective activity of metformin against an immunosuppressive photo effect (depletion of Langerhans cells) induced by UVB radiation on a survival-maintained human skin model.
# The immunosuppressive photo activity induced by UVB is, assessed by counting the number of Langerhans cells in a separated epidermis and in tissue sections after anti-CDla labelling.
# 27 skin explants were prepared and maintained in-survival in a culture medium. They were divided among 9 batches of three explants: three reference batches, three excipient batches and three ointment batches containing 1% metformin (formulation example 3).
# 3 batches (reference, excipient and ointment) were exposed to UVB radiation of 4 J/cm^2, three batches (reference, excipient and ointment) to UVB radiation of 6 J/cm^2 and the three last batches were placed in darkness during the time of irradiation.
# Daily application of the ointment was 4 mg per explant for 3 days before irradiation.
# Analysis of the reference and treated explants was performed 24 h after irradiation.
# Anti-CDla immunolabelling of Langerhans cells was made in the separated epidermis and in tissue sections.
# [1] = cited from earlier work
structure (smiles),measurement,setting,value
CN(C)C(=N)N=C(N)N [metformin],protective activity against UVB,Langerhans cells,protective action
same,toxicity,[1]; at hypoglycaemic doses,absence of toxicity
same,chronic toxicity,[1]; in vivo,practically zero
same,tolerance,[1]; in vivo,good
